Measured values taken from ChEMBL document CHEMBL1150186, “Chemical studies on Mexican plants used in traditional medicine, XV. Sesquiterpene evoninoate alkaloids from Hippocratea excelsa” (J Nat Prod, 1990).
Values after ≈ are worked out from the molar mass of the structure shown.

Legend:
[1] = Toxicity against brine shrimp; type: organism-based; conditions: artemia, in vivo
[2] = Cytotoxicity against mouse 9PS cells; type: functional; conditions: read-out: ED50 (the source's name)
A549 = test: Cytotoxicity against human A549 cells; type: functional; conditions: read-out: ED50 (the source's name)
HT-29 = test: Cytotoxicity against human HT-29 cells; type: functional; conditions: read-out: ED50 (the source's name)
MCF7 = test: Cytotoxicity against human MCF7 cells; type: functional; conditions: read-out: ED50 (the source's name)

SMILES: CC(=O)OC[C@]12[C@H](OC(C)=O)[C@H](OC(C)=O)C3C(OC(C)=O)[C@@]14O[C@@]3(C)COC(=O)c1cccnc1[C@@H](C)[C@H](C)C(=O)OC([C@H](OC(=O)c1ccc(=O)n(C)c1)[C@@H]2OC(=O)c1ccccc1)[C@]4(C)O (stereo not given in full) [HIPPOCRATEINE]
- LC50 [1]: 212 µg/mL (≈ 221 µM)
- EC50 [2]: 0.185 µg/mL (≈ 0.193 µM)
- EC50 (A549): > 10 µg/mL
- EC50 (HT-29): > 10 µg/mL
- EC50 (MCF7): > 10 µg/mL
